Reference: patent publication US6497862B2, “Composition for inhibiting body odor and uses thereof” (Kabushiki Kaisha Hayashibara, priority 2000, dated 2002)

What was measured:
healthy volunteer = test: Test on volunteer: volatile aldehydes collected from worn underwear (Experiment 7); format: in vivo, human
Description: The influence of saccharides on the formation of body odor from living bodies by applying trehalose to a healthy volunteer, under the following schedule: After soaking a towel in a 2% (w/w) aqueous trehalose solution, which had been boiled for five minutes and then cooled to about 40° C., at 10:30 a.m. on the day of starting a test, the volunteer as in a test system was allowed to wipe their whole body with the towel squeezed roughly to apply trehalose on the body surface, and made them to spend their daily life as usual after the drying of the applied aqueous trehalose solution. Thereafter, they were made to take a bath at 9 p.m. as usual and allowed to sufficiently wash their whole body including their hair. Just after bathing, a fresh preparation of aqueous trehalose solution was applied on the body surface similarly as above, then after drying the aqueous trehalose solution, they were made to wear an underwear and allowed to spend their daily life. At 5:30 p.m. on the next day after the initiation of the test, their worn underwear was collected, and tested for the presence and the content of volatile aldehydes in the underwear by the following procedures. As a control, on other day, the volunteer was allowed to wear a similar underwear as used in the test system according to the above test system except for replacing the aqueous trehalose solution with water, and then made them to spend their daily life, followed by collecting their underwear and analyzing them by the following procedures similarly as above.
As shown schematically in FIG. 1, an underwear 5 worn by the volunteer in each system was sealed after placed in a sealing vessel 1 immediately after the collection, and the gas in the sealing vessel 1 was pumped by an air pump 3 into a cartridge 4, “Superclean LpDNPH Cartridge”, with a lot No. LpDNPH S10L commercialized by Supelco Inc., Tokyo, Japan, to collect volatile aldehydes through a pipe 2 at ambient temperature of about 20° C., while the gas was continuously circulated through the sealed vessel 1 through the pipe 2 for one hour to collect in the cartridge 4 volatile aldehydes, as DNPH (dinitrophenylhydrazine), contained in the underwear 5. Thereafter, the cartridge 4 was removed and received two milliliters of acetonitrile by passing therethrough, followed by collecting an eluate from the cartridge 4. The collected eluate was analyzed on GC as follows.
“GAS CHROMATOGRAPH GC-14B”, as a GC apparatus produced by Shimadzu Corporation, Tokyo, Japan; and “TC-Wax CAPILLARY COLUMN”, a column for analysis, having 0.53 mm in inner diameter, 25 m in length, and 0.5 μm in thickness, produced by GL Sciences, Inc., Tokyo, Japan, were used. Helium gas was used as a carrier gas at a flow rate of 1 ml/min, and the temperature for a sample injection part was set to 240° C., while keeping a column thermostatic bath temperature at 50° C. for five minutes and then increasing the temperature up to 200° C. at a rate of 5° C./min. Using two microliters of an analysis sample as an injection volume, 1/30 volume of the injected sample was analyzed (split 1:30) by passing through the column for analysis while controlling the flow rate of the carrier gas at the sample injection part and using a hydrogen flame ionization detector for detection. As standard specimens, DNPH derivatives for each 2-nonenal, 2-octenal, hexanal, and nonanal were used and separately analyzed on GC under the conditions shown above. Based on the gas chromatograms from the above analyses, the content (μg) of respective 2-nonenal, 2-octenal. hexanal, and nonanal, collected form the underwears in the test system and control, was determined.

[1] = Panel test of body-odor-like smell (KAREI-SHU), 9-hexadecanoic acid heated (Experiment 3); design: key: +++: the same or higher level of odor; ++: slightly lower level of odor; +: clearly lower level of odor than the control system; details: compared with control system
Description: (§1) Upon the HSG samples, the level of a body-odor-like smell was examined on a panel test consisting of six professional panels; the panels directly smelled the samples from each glass vial and judged the level of the smells for each samples with test saccharides based on the following four ranks, i.e., the same or higher level of odor (+++), slightly lower level of odor (++), clearly lower level of odor (+), and odorless (−) as compared with the control system. Summing up the data from the panels, the samples tested were totally evaluated.
The content of 2-nonenal in HSG was measured by GC similarly as in Experiment 1 except that 9-hexadecanoic acid or palmitoleic acid was used as a fatty acid and 2-nonenal, a volatile aldehyde, was used as a standard substance. The level of body-odor-like smell, particularly with respect to KAREI-SHU, in each sample was evaluated by panel test in accordance with the method in Experiment 1.

[2] = Panel test of smell, 9-hexadecanoic acid at 37° C. (Experiment 6); design: key: +++: the same or higher level of odor; ++: slightly lower level of odor; +: clearly lower level of odor than that of the control system; −: odorless; details: 3-days of standing, 37° C., 9,000 lux
Description: as §1
One hundred milligrams of 9-hexadecanoic acid as a fatty acid, 500 mg of a cellulose powder, and 1.25 ml of 0.12 M phosphate buffer (pH 6.0) were placed in a 20-ml glass vial. To the glass vial was added 100 mg of either of trehalose, maltitol and sucrose as a test saccharide, followed by sealing with a butyl rubber cap for use as a test system. As a control system, there provided a glass vial with no test saccharide that differed from the test systems only in this point. In both the test- and control-systems, they were respectively provided in doublet.
These glass vials were allowed to stand in a 37° C.-thermostatic-bath under the irradiation of 9,000 lux by a fluorescent lamp. […] After the collection of HSG, the smell from glass vials was evaluated by panel test in accordance with the method in Experiment 2.

Structure (SMILES)	formation of body odor (healthy volunteer; experiment using maltitol in place of trehalose)	Evaluation of panel test [1]	Evaluation of panel test [2]	Content of volatile aldehydes collected from underwear, 2-Nonenal (healthy volunteer; 2% (w/w) aqueous trehalose solution applied on the body surface, control 7.05) [µg]	Content of volatile aldehydes collected from underwear, Hexanal (healthy volunteer; 2% (w/w) aqueous trehalose solution on the body surface, control 5.39, * means no detection)	Content of volatile aldehydes collected from underwear, 2-Octenal (healthy volunteer; 2% (w/w) aqueous trehalose solution on the body surface, control 8.61, * means no detection)	Content of volatile aldehydes collected from underwear, Nonanal (healthy volunteer; 2% (w/w) aqueous trehalose solution on the body surface, control 10.93, * means no detection)	2-nonenal in underwear, level relative to control (healthy volunteer; trehalose applied on the body surface versus water control)
OC[C@@H](O)[C@@H](O[C@H]1O[C@H](CO)[C@@H](O)[C@H](O)[C@H]1O)[C@H](O)[C@@H](O)CO [Maltitol, maltitol]	well inhibits the formation of body odor similarly as trehalose	+	−					
OC[C@H]1O[C@H](O[C@H]2O[C@H](CO)[C@@H](O)[C@H](O)[C@H]2O)[C@H](O)[C@@H](O)[C@@H]1O [Trehalose, trehalose]		+	−	3.72	undetectable level	undetectable level	undetectable level	about 53%
